In US12473304B2, “Heterocyclic PAD4 inhibitors” (BRISTOL-MYERS SQUIBB COMPANY, priority 2020, dated 2025):

Biological target: human PAD4 (hPAD4) (Homo sapiens (Human), UniProt Q9UM07)
Assay: RFMS Human PAD4 Functional Assay 1
Assay type: biochemical
Settings: RFMS assay 1; 5 nM hPAD4, 250 μM BAEE substrate, 50 μM calcium, 37° C.
In short: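 Citrullination product read by RapidFire triple-quad MRM against a modified-citrulline internal standard, after TCA stop and 30 min phenyl glyoxal step at 37 °C. Reaction: 250 μM BAEE, 5 nM human PAD4, 90 min at 37 °C, pH 7.5 HEPES buffer with 50 μM calcium and 5 μM TPEN, following 30 min compound–enzyme preincubation (max 50 μM).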

Chain of human PAD4 (hPAD4) (Q9UM07 whole entry): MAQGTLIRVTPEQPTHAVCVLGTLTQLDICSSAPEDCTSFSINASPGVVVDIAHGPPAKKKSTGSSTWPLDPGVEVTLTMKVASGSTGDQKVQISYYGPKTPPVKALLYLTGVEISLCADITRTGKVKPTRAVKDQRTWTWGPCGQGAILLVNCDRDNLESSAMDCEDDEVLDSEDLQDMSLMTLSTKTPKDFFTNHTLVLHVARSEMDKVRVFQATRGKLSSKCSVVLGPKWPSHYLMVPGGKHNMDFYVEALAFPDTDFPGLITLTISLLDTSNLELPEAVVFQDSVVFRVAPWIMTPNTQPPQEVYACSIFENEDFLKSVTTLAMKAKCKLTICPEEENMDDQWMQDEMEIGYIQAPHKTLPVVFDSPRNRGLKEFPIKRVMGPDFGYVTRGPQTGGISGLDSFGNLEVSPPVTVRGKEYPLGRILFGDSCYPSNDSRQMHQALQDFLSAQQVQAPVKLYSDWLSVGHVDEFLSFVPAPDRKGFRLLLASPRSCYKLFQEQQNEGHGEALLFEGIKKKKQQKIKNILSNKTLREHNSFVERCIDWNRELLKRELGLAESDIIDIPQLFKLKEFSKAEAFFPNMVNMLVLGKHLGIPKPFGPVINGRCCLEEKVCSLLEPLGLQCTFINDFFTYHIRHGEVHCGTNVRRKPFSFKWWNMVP

IC50 [nM]	SMILES
83	Cc1c(-c2cc3ccc(-c4ccc(Cl)c5c(NS(C)(=O)=O)nn(C)c45)cc3n2CC2CC2)nn2cc(C(=O)N3CC4CCC3[C@@H]4N)cc(F)c12 (stereo partly drawn) [Example 58, N-(7-(2-(6-((7R)-7-Amino-2-azabicyclo[2.2.1]heptane-2-carbonyl)-4-fluoro-3-methylpyrazolo[1,5-a]pyridin-2-yl)-1-(cyclopropylmethyl)-1H-indol-6-yl)-4-chloro-1-methyl-1H-indazol-3-yl)methanesulfonamide]
291	Cc1c(-c2cc3ccc(-c4cccc(O)c4F)cc3n2CC2CC2)nn2cc(C(=O)N3CC4CCC3[C@@H]4N)cc(F)c12 (stereo partly drawn) [Example 59, ((7R)-7-Amino-2-azabicyclo[2.2.1]heptan-2-yl)(2-(1-(cyclopropylmethyl)-6-(2-fluoro-3-hydroxyphenyl)-1H-indol-2-yl)-4-fluoro-3-methylpyrazolo[1,5-a]pyridin-6-yl)methanone]
83	Cc1c(-c2cc3ccc(-c4ccc(O)c(F)c4)cc3n2CC2CC2)nn2cc(C(=O)N3CC4CCC3[C@@H]4N)cc(F)c12 (stereo partly drawn) [Example 60, ((7R)-7-Amino-2-azabicyclo[2.2.1]heptan-2-yl)(2-(1-(cyclopropylmethyl)-6-(3-fluoro-4-hydroxyphenyl)-1H-indol-2-yl)-4-fluoro-3-methylpyrazolo[1,5-a]pyridin-6-yl)methanone]
28	Cc1c(-c2cc3ccc(-c4ccn5c(C)nnc5c4)cc3n2CC2CC2)nn2cc(C(=O)N3CC4CCC3[C@@H]4N)cc(F)c12 (stereo partly drawn) [Example 62, ((7R)-7-Amino-2-azabicyclo[2.2.1]heptan-2-yl)(2-(1-(cyclopropylmethyl)-6-(3-methyl-[1,2,4]triazolo[4,3-a]pyridin-7-yl)-1H-indol-2-yl)-4-fluoro-3-methylpyrazolo[1,5-a]pyridin-6-yl)methanone]
227	Cc1c(-c2cc3cccnc3n2CC2CC2)nn2cc(C(=O)N3CC4CCC3[C@@H]4N)ccc12 (stereo partly drawn) [Example 63, ((7R)-7-Amino-2-azabicyclo[2.2.1]heptan-2-yl)(2-(1-(cyclopropylmethyl)-1H-pyrrolo[2,3-b]pyridin-2-yl)-3-methylpyrazolo[1,5-a]pyridin-6-yl)methanone]
25	Cc1c(-c2cc3ccc(-c4ccc5c(c4)C(=O)NC5)nc3n2CC2CC2)nn2cc(C(=O)N3CC4CCC3[C@@H]4N)ccc12 (stereo partly drawn) [Example 65, 6-(2-(6-((7R)-7-Amino-2-azabicyclo[2.2.1]heptane-2-carbonyl)-3-methylpyrazolo[1,5-a]pyridin-2-yl)-1-(cyclopropylmethyl)-1H-pyrrolo[2,3-b]pyridin-6-yl)isoindolin-1-one]
59	Cc1ccc2cc(-c3nn4cc(C(=O)N5CC6CCC5[C@@H]6N)ccc4c3C)n(CC3CC3)c2n1 (stereo partly drawn) [Example 66, ((7R)-7-Amino-2-azabicyclo[2.2.1]heptan-2-yl)(2-(1-(cyclopropylmethyl)-6-methyl-1H-pyrrolo[2,3-b]pyridin-2-yl)-3-methylpyrazolo[1,5-a]pyridin-6-yl)methanone]
23	Cc1c(-c2cc3ccc(-c4ccc(O)c(F)c4)nc3n2CC2CC2)nn2cc(C(=O)N3CC4CCC3[C@@H]4N)ccc12 (stereo partly drawn) [Example 67, ((7R)-7-Amino-2-azabicyclo[2.2.1]heptan-2-yl)(2-(1-(cyclopropylmethyl)-6-(3-fluoro-4-hydroxyphenyl)-1H-pyrrolo[2,3-b]pyridin-2-yl)-3-methylpyrazolo[1,5-a]pyridin-6-yl)methanone]
26	Cc1c(-c2cc3ccc(-c4cccc(O)c4F)nc3n2CC2CC2)nn2cc(C(=O)N3CC4CCC3[C@@H]4N)ccc12 (stereo partly drawn) [Example 68, ((7R)-7-Amino-2-azabicyclo[2.2.1]heptan-2-yl)(2-(1-(cyclopropylmethyl)-6-(2-fluoro-3-hydroxyphenyl)-1H-pyrrolo[2,3-b]pyridin-2-yl)-3-methylpyrazolo[1,5-a]pyridin-6-yl)methanone]
19	Cc1c(-c2cc3ccc(-c4ccc(C(N)=O)c(F)c4)nc3n2CC2CC2)nn2cc(C(=O)N3CC4CCC3[C@@H]4N)ccc12 (stereo partly drawn) [Example 69, 4-(2-(6-((7R)-7-Amino-2-azabicyclo[2.2.1]heptane-2-carbonyl)-3-methylpyrazolo[1,5-a]pyridin-2-yl)-1-(cyclopropylmethyl)-1H-pyrrolo[2,3-b]pyridin-6-yl)-2-fluorobenzamide]
15	Cc1c(-c2cc3ccc(-c4ccn5c(C)nnc5c4)nc3n2CC2CC2)nn2cc(C(=O)N3CC4CCC3[C@@H]4N)ccc12 (stereo partly drawn) [Example 70, ((7R)-7-Amino-2-azabicyclo[2.2.1]heptan-2-yl)(2-(1-(cyclopropylmethyl)-6-(3-methyl-[1,2,4]triazolo[4,3-a]pyridin-7-yl)-1H-pyrrolo[2,3-b]pyridin-2-yl)-3-methylpyrazolo[1,5-a]pyridin-6-yl)methanone]
22	Cc1c(-c2cc3ccc(C4CC4)nc3n2CC2CC2)nn2cc(C(=O)N3CC4CCC3[C@@H]4N)ccc12 (stereo partly drawn) [Example 71, ((7R)-7-Amino-2-azabicyclo[2.2.1]heptan-2-yl)(2-(6-cyclopropyl-1-(cyclopropylmethyl)-1H-pyrrolo[2,3-b]pyridin-2-yl)-3-methylpyrazolo[1,5-a]pyridin-6-yl)methanone]
67	COc1cc(-c2ccc3cc(-c4nn5cc(C(=O)N6CC7CCC6[C@@H]7N)ccc5c4C)n(CC4CC4)c3n2)c(F)cn1 (stereo partly drawn) [Example 72, ((7R)-7-Amino-2-azabicyclo[2.2.1]heptan-2-yl)(2-(1-(cyclopropylmethyl)-6-(5-fluoro-2-methoxypyridin-4-yl)-1H-pyrrolo[2,3-b]pyridin-2-yl)-3-methylpyrazolo[1,5-a]pyridin-6-yl)methanone]
605	Cc1c(-c2cc3ccc(-c4ccc(OC(F)F)c(F)c4)nc3n2CC2CC2)nn2cc(C(=O)N3CC4CCC3[C@@H]4N)ccc12 (stereo partly drawn) [Example 73, ((7R)-7-Amino-2-azabicyclo[2.2.1]heptan-2-yl)(2-(1-(cyclopropylmethyl)-6-(4-(difluoromethoxy)-3-fluorophenyl)-1H-pyrrolo[2,3-b]pyridin-2-yl)-3-methylpyrazolo[1,5-a]pyridin-6-yl)methanone]
425	Cc1c(-c2cc3ccc(-c4cc(F)c(O)c(F)c4)nc3n2CC2CC2)nn2cc(C(=O)N3CC4CCC3[C@@H]4N)ccc12 (stereo partly drawn) [Example 74, ((7R)-7-Amino-2-azabicyclo[2.2.1]heptan-2-yl)(2-(1-(cyclopropylmethyl)-6-(3,5-difluoro-4-hydroxyphenyl)-1H-pyrrolo[2,3-b]pyridin-2-yl)-3-methylpyrazolo[1,5-a]pyridin-6-yl)methanone]
166	Cc1c(-c2cc3ccc(-c4ccc(F)c(O)c4)nc3n2CC2CC2)nn2cc(C(=O)N3CC4CCC3[C@@H]4N)ccc12 (stereo partly drawn) [Example 75, ((7R)-7-Amino-2-azabicyclo[2.2.1]heptan-2-yl)(2-(1-(cyclopropylmethyl)-6-(4-fluoro-3-hydroxyphenyl)-1H-pyrrolo[2,3-b]pyridin-2-yl)-3-methylpyrazolo[1,5-a]pyridin-6-yl)methanone]
96	COC1CCN(c2ccc3cc(-c4nn5cc(C(=O)N6CC7CCC6[C@@H]7N)ccc5c4C)n(CC4CC4)c3n2)CC1 (stereo partly drawn) [Example 76, ((7R)-7-Amino-2-azabicyclo[2.2.1]heptan-2-yl)(2-(1-(cyclopropylmethyl)-6-(4-methoxypiperidin-1-yl)-1H-pyrrolo[2,3-b]pyridin-2-yl)-3-methylpyrazolo[1,5-a]pyridin-6-yl)methanone]
77	Cc1c(-c2cc3ccc(N4CCC(O)CC4)nc3n2CC2CC2)nn2cc(C(=O)N3CC4CCC3[C@@H]4N)ccc12 (stereo partly drawn) [Example 77, ((7R)-7-Amino-2-azabicyclo[2.2.1]heptan-2-yl)(2-(1-(cyclopropylmethyl)-6-(4-hydroxypiperidin-1-yl)-1H-pyrrolo[2,3-b]pyridin-2-yl)-3-methylpyrazolo[1,5-a]pyridin-6-yl)methanone]
143	Cc1c(-c2cc3ccc(N4CCC[C@@H](O)C4)nc3n2CC2CC2)nn2cc(C(=O)N3CC4CCC3[C@@H]4N)ccc12 (stereo partly drawn) [Example 78, ((7R)-7-Amino-2-azabicyclo[2.2.1]heptan-2-yl)(2-(1-(cyclopropylmethyl)-6-((R)-3-hydroxypiperidin-1-yl)-1H-pyrrolo[2,3-b]pyridin-2-yl)-3-methylpyrazolo[1,5-a]pyridin-6-yl)methanone]
212	COC1CN(c2ccc3cc(-c4nn5cc(C(=O)N6CC7CCC6[C@@H]7N)ccc5c4C)n(CC4CC4)c3n2)C1 (stereo partly drawn) [Example 79, ((7R)-7-Amino-2-azabicyclo[2.2.1]heptan-2-yl)(2-(1-(cyclopropylmethyl)-6-(3-methoxyazetidin-1-yl)-1H-pyrrolo[2,3-b]pyridin-2-yl)-3-methylpyrazolo[1,5-a]pyridin-6-yl)methanone]
1610	Cc1c(-c2cc3cccnc3n2CC2CC2)nn2cc(C(=O)N3C[C@H](N)C[C@@H](F)C3)ccc12 [Example 80, ((3R,5R)-3-Amino-5-fluoropiperidin-1-yl)(2-(1-(cyclopropylmethyl)-1H-pyrrolo[2,3-b]pyridin-2-yl)-3-methylpyrazolo[1,5-a]pyridin-6-yl)methanone]
384	Cc1c(-c2cc3ccc(-c4ccc5c(c4)CNC5=O)nc3n2CC2CC2)nn2cc(C(=O)N3C[C@H](N)C[C@@H](F)C3)ccc12 [Example 81, 5-(2-(6-((3R,5R)-3-Amino-5-fluoropiperidine-1-carbonyl)-3-methylpyrazolo[1,5-a]pyridin-2-yl)-1-(cyclopropylmethyl)-1H-pyrrolo[2,3-b]pyridin-6-yl)isoindolin-1-one]
368	Cc1ccc2cc(-c3nn4cc(C(=O)N5C[C@H](N)C[C@@H](F)C5)ccc4c3C)n(CC3CC3)c2n1 [Example 82, ((3R,5R)-3-Amino-5-fluoropiperidin-1-yl)(2-(1-(cyclopropylmethyl)-6-methyl-1H-pyrrolo[2,3-b]pyridin-2-yl)-3-methylpyrazolo[1,5-a]pyridin-6-yl)methanone]
